US7601850B2, “Phenyl-thiophene type vitamin D receptor modulators” (Eli Lilly and Company, priority 2002, dated 2009)
Where two headings read alike, the source gives them in different places.

Tested on: rat osteocalcin promoter
Assay: OCN (osteocalcin) promoter assay in RG-15 (ROS 17/2.8) cells
Format: cell-based
Procedure: 4. The OCN Promoter test is described in the “Assay” section of the Description, infra.
3. The OCN (Osteocalcin) Promoter Assay
The OCN Promoter Assay is an indicator and marker for osteoporosis. Desired assay results are EC50 less than or equal to 325 nM. Preferred assay results are less than 50 nM.
(3) Materials and Method for The OCN Promoter Assay:
The activation of osteocalcin by VDR ligands was evaluated in a rat osteoblast-like cell line RG-15 (ROS 17/2.8) stably expressing rat osteocalcin promoter fused with luciferase reporter gene. The stable cell lines were established as reported before (Activation of Osteocalcin Transcription involves interaction of protein kinase A- and Protein kinase C-dependent pathways. Boguslawski, G., Hale, L. V., Yu, X.-P., Miles, R. R., Onyia, J. E., Santerre R. F., Chandrasekhar, S. J Biol. Chem. 275, 999-1006, 2000). Confluent RG-15 cells maintained in DMEM/F-12 medium (3:1) containing 5% FBS, 300 µg/ml G418 and at 37° C. under 5% CO2/95% air atmosphere were trypsinized (0.25% trypsin) and plated into white opaque 96-well cell culture plates (25000 cells/well). After 24 hr, cells (in DMEM/F-12 medium+2% FBS) were treated with various concentrations of compounds, dissolved in DMSO. The final DMSO concentration remained at 0.01% (v/v). After 48 hr treatment, the medium was removed, cells were lysed with 50 µl of lysis buffer (From Luciferase reporter assay system, Roche Diagnostics, Indianapolis, Ind.) and assayed for luciferase activity using the Luciferase Reporter Gene Assay kit from Boehringer Mannheim as per manufacturer's specifications.

Row | SMILES | EC50 | EC50 (Rattus norvegicus)
1 | CCC(CC)(c1ccc(OCC(O)C(C)(C)C)c(C)c1)c1cc(C)c(C(=O)N[C@@H](C(=O)O)C(C)C)s1 (stereo partly drawn) [Ex. 86, D-2-[(5-{1-Ethyl-1-[4-(2-hydroxy-3,3-dimethyl-butoxy)-3-methyl-phenyl]-propyl}-3-methyl-thiophene-2-carbonyl)-amino]-3-methyl-butyric acid] | 0.205 µM | –
2 | CCC(CC)(c1ccc(OCC(O)C(C)(C)C)c(C)c1)c1cc(C)c(C(=O)N2CCC[C@H]2C(=O)O)s1 (single isomer, unassigned) [Ex. 73, L-1-(5-{1-Ethyl-1-[4-(2-hydroxy-3,3-dimethyl-butoxy)-3-methyl-phenyl]-propyl}-3-methyl-thiophene-2-carbonyl)pyrrolidine-2-carboxylic acid] | – | 0.266 µM
3 | CCC(CC)(c1ccc(OCC(=O)C(C)(C)C)c(C)c1)c1cc(C)c(C(=O)OC)s1 [Ex. 1] | – | 0.141 µM
4 | CCC(CC)(c1ccc(C(=O)NCC(=O)O)c(C)c1)c1cc(C)c(CCC(O)C(C)(C)C)s1 (single isomer, unassigned) [Ex. 27] | – | 0.0491 µM
5 | CCC(CC)(c1ccc(OCC(=O)OC)c(C)c1)c1cc(C)c(CCC(O)C(C)(C)C)s1 (stereo not drawn) [Ex. 31] | – | 0.0078 µM
6 | CCC(CC)(c1ccc(OCC(O)C(C)(C)C)c(C)c1)c1cc(C)c(C(=O)NCCS(C)(=O)=O)s1 (single isomer, unassigned) [Ex. 40, 5-[1-ethyl-1-[4-(2-hydroxy-3,3-dimethyl-butoxy)-3-methylphenyl]propyl]-3-methylthiophene-2-carboxylic acid (2-methylsulfonyl-ethyl) amide] | 0.613 µM | –
7 | CCCc1cc(C(CC)(CC)c2ccc(S(=O)(=O)NCC(=O)O)s2)ccc1OCC(O)C(C)(C)C (stereo not drawn) [Ex. 157] | – | 0.00765 µM
8 | CCC(CC)(c1ccc(OCC(O)C(C)(C)C)c(C)c1)c1cc(C)c(C(=O)Nc2nnn[nH]2)s1 (single isomer, unassigned) [Ex. 37, 3′-[4-(2-hydroxy-3,3-dimethylbutoxy)-3-methylphenyl]-3′-[5-(tetrazol-5-yl-aminocarbonyl)-4-methylthiophen-2-yl]pentane] | 0.24 µM | –
9 | CCC(CC)(c1ccc(OCC(O)C(C)(C)C)c(C)c1)c1ccc(C(=O)O)s1 (stereo not drawn) [Ex. 88, 3′-[4-(2-hydroxy-3,3-dimethylbutoxy)-3-methylphenyl]-3′-[5-carboxy-thiophen-2-yl]pentane] | – | 0.169 µM
10 | CCC(CC)(c1ccc(OCC(O)C(C)(C)C)c(C)c1)c1cc(C)c(C(=O)N[C@H](C)C(=O)O)s1 (stereo partly drawn) [Ex. 57, D-2-[(5-{1-Ethyl-1-[4-(2-hydroxy-3,3-dimethyl-butoxy)-3-methyl-phenyl]-propyl}-3-methyl-thiophene-2-carbonyl)-amino]-propionic acid] | 0.115 µM | –
11 | CCC(CC)(c1ccc(OCC(=O)C(C)(C)C)c(C)c1)c1cc(C)c(CN(CC(=O)O)C(C)=O)s1 [Ex. 133, 2-[N-Acetyl-(5-{1-[4-(3,3-dimethyl-2-oxo-butoxy)-3-methyl-phenyl]-1-ethyl-propyl}-3-methyl-thiophen-2-yl-methyl)-amino]-acetic acid] | – | 0.0493 µM
12 | CCC(CC)(c1ccc(OCC(O)C(C)(C)C)c(C)c1)c1cc(C)c(S(=O)(=O)NCC(=O)O)s1 (stereo not drawn) [Ex. 137] | – | 0.0242 µM
13 | CCC(CC)(c1ccc(OCC(=O)C(C)(C)C)c(C(C)C)c1)c1ccc(C(=O)OC)s1 [Ex. 91, 3′-[4-(2-oxo-3,3-dimethylbutoxy)-3-(1-methylethyl)phenyl]-3′-[5-methoxycarbonyl-thiophen-2-yl]pentane] | – | 0.212 µM
14 | CCC(CC)(c1ccc(OCC(O)C(C)(C)C)c(C)c1)c1cc(C)c(S(=O)(=O)N[C@H](C)C(=O)OC)s1 (stereo partly drawn) [Ex. 150] | – | 0.0552 µM
15 | CCC(CC)(c1ccc(OCC(O)C(C)(C)C)c(C)c1)c1cc(C)c(S(=O)(=O)NC(C)(C)C(=O)OC)s1 (stereo not drawn) [Ex. 148] | – | 0.236 µM
16 | CCC(CC)(c1ccc(OCC(O)C(C)(C)C)c(C)c1)c1cc(C)c(C(=O)NCC(=O)O)s1 (stereo not drawn) [Ex. 47, 2-[5-{1-Ethyl-1-{4-(2-hydroxy-3,3-dimethyl-butyoxy)-3-methyl-phenyl-propyl}-3-methyl-thiophene-2-carbonyl)-amino]-acetic acid] | – | 0.0277 µM
17 | CCC(CC)(c1ccc(OCC(=O)C(C)(C)C)c(C)c1)c1cc(C)c(S(=O)(=O)NC(=O)C2CC2)s1 [Ex. 165, 5-{1-[4-(3,3-Dimethyl-2-oxo-butoxy)-3-methyl-phenyl]-1-ethyl-propyl}-3-methyl-thiophene-2-sulfonic acid cyclopropanecarbonyl-amide] | – | 0.138 µM
18 | CCC(CC)(c1ccc(OCC(=O)O)c(C)c1)c1cc(C)c(CCC(O)C(C)(C)C)s1 (stereo not drawn) [Ex. 32] | – | 0.00935 µM

Row | SMILES | EC50 | EC50 (Rattus norvegicus)
19 | CCC(CC)(c1ccc(OCC(O)C(C)(C)C)c(C)c1)c1cc(C)c(-c2n[nH]c(=S)o2)s1 (stereo not drawn) [Ex. 172, 5-(5-{1-Ethyl-1-[4-(2-hydroxy-3,3-dimethyl-butoxy)-3-methyl-phenyl]-propyl}-3-methyl-thiophen-2-yl)-3H-[1,3,4]oxadiazole-2-thione] | – | 0.0172 µM
20 | CCOC(=O)CCNS(=O)(=O)c1sc(C(CC)(CC)c2ccc(OCC(O)C(C)(C)C)c(C)c2)cc1C (stereo not drawn) [Ex. 140] | – | 0.0725 µM
21 | CCC(CC)(c1ccc(OCC(O)C(C)(C)C)c(C)c1)c1cc(C)c(S(=O)(=O)N[C@H](C)C(=O)O)s1 (stereo partly drawn) [Ex. 151] | – | 0.0482 µM
22 | CCC(CC)(c1ccc(OCC(O)C(C)(C)C)c(C)c1)c1cc(C)c(C(=O)N[C@@H](C)C(=O)OC)s1 (single isomer, unassigned) [Ex. 54, L-2-[(5-{1-Ethyl-1-[4-(2-hydroxy-3,3-dimethyl-butoxy)-3-methyl-phenyl]-propyl}-3-methyl-thiophene-2-carbonyl)amino]propionic acid methyl ester] | 0.0275 µM | –
23 | CCC(CC)(c1ccc(OCC(O)C(C)(C)C)c(C)c1)c1cc(C)c(C(=O)NC(C)(C)C(=O)OC)s1 (single isomer, unassigned) [Ex. 76, 2-[(5-{1-Ethyl-1-[4-(2-hydroxy-3,3-dimethyl-butoxy)-3-methyl-phenyl]-propyl}-3-methyl-thiophene-2-carbonyl)-amino]-2-methyl-propionic acid methyl ester] | 0.0578 µM | –
24 | CCC(CC)(c1ccc(OCC(O)C(C)(C)C)c(C)c1)c1cc(C)c(C(=O)N2CCC[C@H]2C(=O)OC)s1 (single isomer, unassigned) [Ex. 74, L-1-(5-{1-Ethyl-1-[4-(2-hydroxy-3,3-dimethyl-butoxy)-3-methyl-phenyl]-propyl}-3-methyl-thiophene-2-carbonyl)-pyrrolidine-2-carboxylic acid methyl ester] | 0.479 µM | –
25 | CCC(CC)(c1ccc(OCC(=O)C(C)(C)C)c(C)c1)c1cc(C)c(S(=O)(=O)NCC(=O)O)s1 [Ex. 139] | – | 0.031 µM
26 | CCCc1cc(C(CC)(CC)c2ccc(C(=O)O)s2)ccc1OCC(C)(O)C(C)(C)C (single isomer, unassigned) [Ex. 112, 3′-[4-(2-hydroxy-2,3,3-trimethylbutoxy)-3-n-propylphenyl]-3′-[5-carboxy-thiophen-2-yl]pentane] | 0.005 µM | –
27 | CCC(CC)(c1ccc(OCC(=O)C(C)(C)C)c(C)c1)c1cc(C)c(S(=O)(=O)/N=C/N(C)C)s1 [Ex. 161] | – | 0.077 µM
28 | CCC(O)(CC)COc1ccc(C(CC)(CC)c2cc(C)c(C(=O)NCC(=O)O)s2)cc1C [Ex. 53, 2-[(5-{1-Ethyl-1-[4-(2-ethyl-2-hydroxy-butoxy)-3-methyl-phenyl]-propyl}-3-methyl-thiophene-2-carbonyl)-amino]-acetic acid] | – | 0.267 µM
29 | CCC(CC)(c1ccc(C(=O)NCC(=O)O)c(C)c1)c1cc(C)c(CCC(O)C(C)(C)C)s1 (stereo not drawn) [Ex. 26] | – | 0.00795 µM
30 | CCC(O)(CC)COc1ccc(C(CC)(CC)c2cc(C)c(C(=O)O)s2)cc1C [Ex. 51, 5-{1-Ethyl-1-[4-(2-ethyl-2-hydroxy-butoxy)-3-methyl-phenyl]-propyl}-3-methyl-thiophene-2-carboxylic acid] | – | 0.781 µM
31 | CCC(CC)(c1ccc(OCC(=O)C(C)(C)C)c(C)c1)c1cc(C)c(C(=O)NCCS(C)(=O)=O)s1 [Ex. 41, 5-{1-[4-(3,3-Dimethyl-2-oxo-butyoxy)-3-methyl-phenyl]-1-ethyl-propyl}-3-methyl-thiophene-2-carbolic acid (2-methanesulfonyl-ethyl]-amide] | – | 0.3 µM
32 | CCC(CC)(c1ccc(C(=O)NCC(=O)OC)c(C)c1)c1cc(C)c(CCC(O)C(C)(C)C)s1 (single isomer, unassigned) [Ex. 25A] | – | 0.0099 µM
33 | CCC(CC)(c1ccc(OCC(C)(O)C(C)(C)C)c(OC)c1)c1ccc(C(=O)N[C@@H](C)C(=O)O)s1 (stereo partly drawn) [Ex. 115, d-3′-[4-(2-hydroxy-2,3,3-trimethylbutoxy)-3-methoxyphenyl]-3′-[5-(carboxy-1-ethylamino)carbonyl-thiophen-2-yl]pentane] | – | 0.0199 µM
34 | CCCc1cc(C(CC)(CC)c2ccc(C(=O)O)s2)ccc1OCC(C)(O)C(C)(C)C (stereo not drawn) [Ex. 111, 3′-[4-(2-hydroxy-2,3,3-trimethylbutoxy)-3-n-propylphenyl]-3′-[5-carboxy-thiophen-2-yl]pentane] | – | 0.0345 µM
35 | CCC(CC)(c1ccc(OCC(C)(O)C(C)(C)C)c(C)c1)c1ccc(C(=O)O)s1 (single isomer, unassigned) [Ex. 105, 3′-[4-(2-hydroxy-2,3,3-trimethylbutoxy)-3-methylphenyl]-3′-[5-carboxy-thiophen-2-yl]pentane] | 0.736 µM | –
36 | CCC(CC)(c1ccc(OCS(C)(=O)=O)c(C)c1)c1cc(C)c(CC[C@@H](O)C(C)(C)C)s1 [Ex. 14] | – | 0.0466 µM
